The text below walks through data of patent US6136842A, “Sulphur derivatives comprising an amide bond, method for preparing same, use thereof as drugs, and pharmaceutical compositions containing such derivatives” (Hoechst Marion Roussel, priority 1996, dated 2000).

The target of this assay is T1, endothelin-converting enzyme (ECE) (Homo sapiens, UniProt P42892).
T1 sequence (P42892 1-770): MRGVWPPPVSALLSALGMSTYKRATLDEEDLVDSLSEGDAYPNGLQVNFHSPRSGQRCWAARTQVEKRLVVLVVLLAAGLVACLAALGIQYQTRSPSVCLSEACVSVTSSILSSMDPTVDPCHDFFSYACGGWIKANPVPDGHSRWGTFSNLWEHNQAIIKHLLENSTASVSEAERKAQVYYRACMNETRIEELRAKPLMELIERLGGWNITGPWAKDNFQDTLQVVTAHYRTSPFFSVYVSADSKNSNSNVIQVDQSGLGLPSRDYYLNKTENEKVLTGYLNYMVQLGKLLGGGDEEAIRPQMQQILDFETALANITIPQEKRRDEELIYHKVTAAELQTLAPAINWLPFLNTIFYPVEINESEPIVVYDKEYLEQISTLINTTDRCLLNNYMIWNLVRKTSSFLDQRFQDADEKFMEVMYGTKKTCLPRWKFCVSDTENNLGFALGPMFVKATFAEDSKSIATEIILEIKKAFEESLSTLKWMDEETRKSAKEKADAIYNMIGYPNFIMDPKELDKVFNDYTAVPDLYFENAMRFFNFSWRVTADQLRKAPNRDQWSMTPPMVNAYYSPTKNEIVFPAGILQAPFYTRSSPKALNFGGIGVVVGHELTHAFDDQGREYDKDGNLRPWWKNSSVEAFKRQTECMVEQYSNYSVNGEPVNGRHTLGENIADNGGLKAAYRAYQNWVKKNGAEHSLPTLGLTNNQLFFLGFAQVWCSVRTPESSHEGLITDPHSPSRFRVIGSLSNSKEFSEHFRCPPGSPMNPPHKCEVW
Description: Determination of the inhibitory effect of the endothelin-converting enzyme (ECE): cleavage of (2,3-^3 H)propionyl-b-ET-1(19-35). The format is biochemical. The settings on record: purified ECE, pre-incubated 30 minutes at 37° C., Tris maleate buffer pH=6.5, incubation one hour at 37° C. From the text: Determination of the inhibitory effect of the endothelin-converting enzyme (ECE) A test is used, in which the product (2,3-^3 H)propionyl-b-ET-1(19-35) prepared as indicated below in a) is cleaved by ECE into the product (2,3-^3 H)propionyl-b-ET-1(19-21) in the presence of product P of which the inhibitory activity of ECE one wishes to determine as indicated below in b): the inhibitory activity of ECE of the product P will therefore be accordingly as high as the quantity of product of formula (II) formed, determined by counting the radioactivity, will be low. The operation is carried out as follows: b) Determination of the inhibitory activity of the endothelin-converting enzyme (ECE) […] The reaction is initiated by the addition of 10 μl of (2,3-^3 H)propionyl-b-ET-1(-19-35) prepared as indicated above in a), at a final concentration of 1.8.10^-12 M After incubation for one hour at 37° C., the reaction is stopped by the addition of 600 μl of ethyl acetate and the (2,3-^3 H)propionyl-b-ET-1(19-21) is extracted by mechanical agitation for 2 minutes. 300 μl of the organic phase is removed, 5 ml of liquid scintillator is added and the radioactivity is counted for 1 minute with a liquid scintillation counter. Each measurement is carried out in triplicate except for the ECE control (control enzyme, without the product the ECE inhibitory activity of which one wishes to test), for which the measurement is carried out six times. The percentage inhibition is calculated by establishing the relationship: [formula] The blank is carried out starting with the solution obtained without enzyme. The test was validated by its application to known inhibitors i.e. P1 which is phosphoramidon and P2 which is N-(phenylethylphosphonyl)-Leu-Trp (TAKEDA). From the cpm's obtained and by plotting the graph of the percentage of inhibition relative to the concentration of inhibitor (nM), the IC50 is calculated which therefore corresponds to the concentration which causes a 50% inhibition of ECE.

The IC50 is the concentration needed to halve the response being measured. Read a low IC50 as inhibition by little substance. Consider `O=C(N[C@@H](Cc1ccc(-c2ccccc2)cc1)c1nnn[nH]1)[C@@H](CS)Cc1ccccc1` [Example 9, (S,S)N-(2-((1,1'-biphenyl)-4-yl)-1-(1H-tetrazol-5-yl)ethyl)-alpha-(mercaptomethyl)-benzenepropanamide], for which the IC50 was found to be 70 nM. That is a double-digit nanomolar value.

`O=C(N[C@@H](Cc1c[nH]c2c(OCc3ccccc3)cccc12)C(=O)O)C(CS)Cc1cccc(Br)c1` (stereo partly drawn) [Example 8, N-[3-(3-bromophenyl)-2-(mercaptomethyl)-1-oxopropyl]-7-(phenylmethoxy)-Tryptophan] had an IC50 of 150 nM.

As for `O=C(N[C@@H](Cc1ccc(-c2cccs2)cc1)C(=O)O)C(CS)Cc1cccc(Br)c1` (single isomer, unassigned) [Example 7A], the 50% inhibitory concentration (IC50) was 120 nM.
